Test results as given in patent US8796292B2, “Selective antibacterials for clostridium difficile infections” (GLSynthesis Inc., priority 2009, dated 2014).
Converted amounts (≈) assume the structure as drawn. Like-named read-outs stand apart in the source and are kept apart here.

How the values were obtained:
Experiment in all cases: agar dilution MIC assay of anaerobic bacteria
C. difficile = type: cell-based, Clostridium difficile; details: Clostridioides difficile, read-out: MIC
Protocol: (§1) Each compound was assayed against a panel of anaerobic bacteria in culture, consisting of Gram-positive organisms, such as Lactobacilli, Bifidobacteria, Clostridium spp., and Gram-negative bacteria, such as […] fragilis spp., according to guidelines of the Clinical and Laboratory Standards Institute (CLSI document M11-A7, CLSI, Wayne, Pa., 2007). […] One tenth mL of diluted bacteria containing 500-1000 colony-forming units (CFU) was plated and spread, and the plates incubated at 37° C. for 24-48 hours. MIC (minimum inhibitory concentration) is equivalent to the lowest concentration in μg/ml at which growth, i.e., colony formation, is not observed. […] Bacteria were assayed using a reference agar dilution method. Drug dilutions and drug-supplemented agar plates were prepared manually. The test organisms were maintained frozen at −80° C. The isolates were sub-cultured on Supplemented Brucella Agar (SBA) plates in a Bactron II anaerobic chamber and incubated for 48 hours at 35-36° C. in the Bactron II anaerobe chamber. Following inoculation, the drug-supplemented plates were incubated at 35° C. for 48 hours in the anaerobic environment (5% hydrogen, 5% carbon dioxide, 90% nitrogen) of the Bactron II. The MIC in μg/ml was read per Clinical and Laboratory Standards Institute guidelines.

L. casei = type: cell-based, Lactobacillus casei; details: Lacticaseibacillus casei, Micromyx Number 1722, Table 1
Protocol: as §1

E. lentum = type: cell-based, Eubacterium lentum; details: Eggerthella lenta; E. lentum, Micromyx Number 1274, Table 1; read-out: MIC
Protocol: as §1

L. acidophilus = type: cell-based; details: Lactobacillus acidophilus, Micromyx Number 0681, Table 1
Protocol: as §1

Ba. fragilis = type: cell-based; details: Bacteroides fragilis, Micromyx Number 0123 (ATCC strain)
Protocol: as §1

Bi. brevi = type: cell-based, Bifidobacterium brevi; details: Bifidobacterium; Bi. brevi, Micromyx Number 3967, Table 1
Protocol: as §1

Bi. longum = type: cell-based, Bifidobacterium longum; details: Bifidobacterium longum; Bi. longum, Micromyx Number 3968, Table 1; read-out: MIC
Protocol: as §1

[1] = C. difficile, Micromyx Number 1209, Table 1
[2] = C. difficile, Micromyx Number 3579, Table 1
[3] = C. difficile, Micromyx Number 3580, Table 1
[4] = C. difficile, Micromyx Number 3581, Table 1
[5] = C. difficile, Micromyx Number 3582, Table 1
[6] = C. difficile, Micromyx Number 3584, Table 1
[7] = C. difficile, Micromyx Number 3585, Table 1
[8] = C. difficile, Micromyx Number 3586, Table 1
[9] = C. difficile, Micromyx Number 3587, Table 1
[10] = C. difficile, Micromyx Number 3588, Table 1
[11] = C. difficile, Micromyx Number 3589, Table 1
[12] = C. difficile, Micromyx Number 3590, Table 1
[13] = C. difficile, Micromyx Number 3591, Table 1
[14] = C. difficile, Micromyx Number 3593, Table 1
[15] = C. difficile, Micromyx Number 3594, Table 1
[16] = C. difficile, Micromyx Number 3595, Table 1
[17] = C. difficile, Micromyx Number 4381 (ATCC strain), Table 1
[18] = Ba. fragilis, Gram negative, Table 1

CCC[C@@H]1C[C@@H](C(=O)N[C@@H]([C@H]2O[C@H](SC)[C@H](O)[C@@H](O)[C@H]2O)[C@H](C)Cl)N(C)C1 [clindamycin, reference compound]
MIC (C. difficile; [1]): 4 µg/mL (≈ 9.41 µM)
MIC (C. difficile; [2]): 16 µg/mL (≈ 37.6 µM)
MIC (C. difficile; [3]): 8 µg/mL (≈ 18.8 µM)
MIC (C. difficile; [4]): > 16 µg/mL
MIC (C. difficile; [5]): 0.5 µg/mL (≈ 1.18 µM)
MIC (C. difficile; [6]): 8 µg/mL (≈ 18.8 µM)
MIC (C. difficile; [7]): 8 µg/mL (≈ 18.8 µM)
MIC (C. difficile; [8]): 8 µg/mL (≈ 18.8 µM)
MIC (C. difficile; [9]): 8 µg/mL (≈ 18.8 µM)
MIC (C. difficile; [10]): 8 µg/mL (≈ 18.8 µM)
MIC (C. difficile; [11]): > 16 µg/mL
MIC (C. difficile; [12]): 8 µg/mL (≈ 18.8 µM)
MIC (C. difficile; [13]): 8 µg/mL (≈ 18.8 µM)
MIC (C. difficile; [14]): 8 µg/mL (≈ 18.8 µM)
MIC (C. difficile; [15]): > 16 µg/mL
MIC (C. difficile; [16]): > 16 µg/mL
MIC (C. difficile; [17]): 4 µg/mL (≈ 9.41 µM)
MIC (L. casei): 2 µg/mL (≈ 4.71 µM)
MIC (E. lentum): 0.12 µg/mL (≈ 0.282 µM)
MIC (L. acidophilus): 4 µg/mL (≈ 9.41 µM)
MIC (Ba. fragilis; [18]): 1 µg/mL (≈ 2.35 µM)
MIC (Bi. brevi): 0.12 µg/mL (≈ 0.282 µM)
MIC (Bi. longum): ≤ 0.03 µg/mL

CN[C@H](CC(C)C)C(=O)N[C@H]1C(=O)N[C@@H](CC(N)=O)C(=O)N[C@H]2C(=O)N[C@H]3C(=O)N[C@H](C(=O)N[C@H](C(=O)O)c4cc(O)cc(O)c4-c4cc3ccc4O)[C@H](O)c3ccc(c(Cl)c3)Oc3cc2cc(c3O[C@@H]2O[C@H](CO)[C@@H](O)[C@H](O)[C@H]2O[C@H]2C[C@](C)(N)[C@H](O)[C@H](C)O2)Oc2ccc(cc2Cl)[C@H]1O [vancomycin, reference compound]
MIC (C. difficile; C. diff. Strain no. 18285, Table 4): 1 µg/mL (≈ 0.69 µM)
MIC (C. difficile; C. diff. Strain no. 19265, Table 4): 1 µg/mL (≈ 0.69 µM)
MIC (C. difficile; C. diff. Strain no. 19273, Table 4): 1 µg/mL (≈ 0.69 µM)
MIC (C. difficile; C. diff. Strain no. 19281, Table 4): 1 µg/mL (≈ 0.69 µM)
MIC (C. difficile; C. diff. Strain no. 19291, Table 4): 1 µg/mL (≈ 0.69 µM)
MIC (C. difficile; C. diff. Strain no. 19369, Table 4): 1 µg/mL (≈ 0.69 µM)
MIC (C. difficile; C. diff. Strain no. 19382, Table 4): 4 µg/mL (≈ 2.76 µM)
MIC (C. difficile; C. diff. Strain no. 19540, Table 4): 1 µg/mL (≈ 0.69 µM)
MIC (C. difficile; C. diff. Strain no. 19580, Table 4): 4 µg/mL (≈ 2.76 µM)
MIC (C. difficile; C. diff. Strain no. 19680, Table 4): 1 µg/mL (≈ 0.69 µM)
MIC (C. difficile; C. diff. Strain no. 19681, Table 4): 2 µg/mL (≈ 1.38 µM)
MIC (C. difficile; C. diff. Strain no. 19683, Table 4): 8 µg/mL (≈ 5.52 µM)
MIC (C. difficile; C. diff. Strain no. 19687, Table 4): 1 µg/mL (≈ 0.69 µM)
MIC (C. difficile; C. diff. Strain no. 20066, Table 4): 4 µg/mL (≈ 2.76 µM)
MIC (C. difficile; C. diff. Strain no. 20152, Table 4): 1 µg/mL (≈ 0.69 µM)
MIC (C. difficile; C. diff. Strain no. 20307, Table 4): 2 µg/mL (≈ 1.38 µM)
MIC (C. difficile; C. diff. Strain no. 20494, Table 4): 4 µg/mL (≈ 2.76 µM)
MIC (C. difficile; C. diff. Strain no. 20680, Table 4): 1 µg/mL (≈ 0.69 µM)
MIC (C. difficile; C. diff. Strain no. 20934, Table 4): 4 µg/mL (≈ 2.76 µM)
MIC (C. difficile; C. diff. Strain no. 21099, Table 4): 2 µg/mL (≈ 1.38 µM)
MIC (C. difficile; C. diff., Micromyx Number 3579, Table 2): 1 µg/mL (≈ 0.69 µM)
MIC (C. difficile; C. diff., Micromyx Number 3580, Table 2): 1 µg/mL (≈ 0.69 µM)
MIC (C. difficile; C. diff., Micromyx Number 3581, Table 2): 4 µg/mL (≈ 2.76 µM)
MIC (C. difficile; C. diff., Micromyx Number 3582 (ATCC strain), Table 2): 2 µg/mL (≈ 1.38 µM)
MIC (C. difficile; [1]): 1 µg/mL (≈ 0.69 µM)
MIC (C. difficile; [2]): 1 µg/mL (≈ 0.69 µM)
MIC (C. difficile; [3]): 1 µg/mL (≈ 0.69 µM)
MIC (C. difficile; [4]): 1 µg/mL (≈ 0.69 µM)
MIC (C. difficile; [5]): 0.25 µg/mL (≈ 0.173 µM)
MIC (C. difficile; [6]): 0.5 µg/mL (≈ 0.345 µM)
MIC (C. difficile; [7]): 0.5 µg/mL (≈ 0.345 µM)
MIC (C. difficile; [8]): 0.5 µg/mL (≈ 0.345 µM)
MIC (C. difficile; [9]): 1 µg/mL (≈ 0.69 µM)
MIC (C. difficile; [10]): 2 µg/mL (≈ 1.38 µM)
MIC (C. difficile; [11]): 0.5 µg/mL (≈ 0.345 µM)
MIC (C. difficile; [12]): 1 µg/mL (≈ 0.69 µM)
MIC (C. difficile; [13]): 2 µg/mL (≈ 1.38 µM)
MIC (C. difficile; [14]): 0.5 µg/mL (≈ 0.345 µM)
MIC (C. difficile; [15]): 1 µg/mL (≈ 0.69 µM)
MIC (C. difficile; [16]): 1 µg/mL (≈ 0.69 µM)
MIC (C. difficile; [17]): 1 µg/mL (≈ 0.69 µM)
MIC (L. casei): > 16 µg/mL
MIC (E. lentum): 2 µg/mL (≈ 1.38 µM)
MIC (L. acidophilus): 2 µg/mL (≈ 1.38 µM)
MIC (Ba. fragilis; B. fragilis, Table 2): 32 µg/mL (≈ 22.1 µM)
MIC (Ba. fragilis; [18]): > 16 µg/mL
MIC (Bi. brevi): 2 µg/mL (≈ 1.38 µM)
MIC (Bi. longum): 0.5 µg/mL (≈ 0.345 µM)
